The source made the active and inactive calls. No cut-off for these calls is given here.
Assays:
[1] = system: Pseudomonas aeruginosa; assay: Bactericidal activity against Pseudomonas aeruginosa PAO1 assessed as reduction in bacterial density at 150 ug/ml incubated for 6 hrs by colony-counting method; assay type: functional; parameters: scale not given: the % may be the effect or the level left; conditions: dose 150 µg/ml
[2] = system: Pseudomonas aeruginosa; assay: Anti-adhesion activity against Pseudomonas aeruginosa PAO1 assessed as inhibition of adhesion ability at 50 ug/ml incubated for 3 hrs using glass as substrate by colony-counting method; assay type: functional
[3] = system: Pseudomonas aeruginosa; assay: Anti-adhesion activity against Pseudomonas aeruginosa PAO1 assessed as inhibition of adhesion ability at 50 ug/ml incubated for 3 hrs using glass as substrate by SEM analysis; assay type: functional, organism-based; conditions: dose 50.0 µg/ml
[4] = system: Pseudomonas aeruginosa; assay: Bactericidal activity against Pseudomonas aeruginosa PAO1 assessed as reduction in bacterial density at 150 ug/ml incubated for 1 hrs by colony-counting method; assay type: functional; parameters: scale not given: the % may be the effect or the level left; conditions: dose 150 µg/ml
[5] = system: Pseudomonas aeruginosa; assay: Antibiofilm activity against Pseudomonas aeruginosa PAO1 assessed as inhibition of biofilm formation at 200 uM incubated for 24 hrs in presence of CaCl2 by crystal violet staining based microscopic analysis; assay type: functional
[6] = system: Pseudomonas aeruginosa; assay: Antibiofilm activity against Pseudomonas aeruginosa PAO1 assessed as inhibition of swarming motility at 200 uM for 18 hrs by motility assay; assay type: functional, organism-based
[7] = system: A549; assay: Cytotoxicity against human A549 cells assessed as reduction in cell viability at 2 mM incubated for 24 hrs by MTT assay; assay type: toxicity, cell-based; conditions: a549, 24 h, 2000 µM
[8] = Stability of the compound in rabbit plasma assessed as retention rate at 200 to 1000 uM and measured upto 24 hrs by HPLC analysis; assay type: ADME, cell-free, Oryctolagus cuniculus; conditions: dose 200-1000 µM, read-out: Stability
[9] = system: Pseudomonas aeruginosa; assay: Synergistic bactericidal activity against Pseudomonas aeruginosa PAO1 assessed as reduction in bacterial density at 200 uM incubated for 6 hrs in presence of azithromycin by colony-counting method; assay type: functional; parameters: scale not given: the % may be the effect or the level left
[10] = system: Pseudomonas aeruginosa; assay: Antibiofilm activity against Pseudomonas aeruginosa PAO1 assessed as disruption of preformed biofilm at 200 uM incubated for 4 hrs by crystal violet staining based microscopic analysis; assay type: functional
[11] = system: Pseudomonas aeruginosa; assay: Anti-adhesion activity against Pseudomonas aeruginosa PAO1 assessed as inhibition of adhesion ability at 200 uM incubated for 3 hrs using glass as substrate by colony-counting method; assay type: functional
[12] = Toxicity in sheep red blood cells assessed as induction of hemolysis at 200 uM for 4 hr; assay type: cell-based, Ovis aries; conditions: erythrocyte
[13] = system: Pseudomonas aeruginosa; assay: Synergistic bactericidal activity against Pseudomonas aeruginosa PAO1 assessed as reduction in bacterial density at 200 uM incubated for 1 hrs in presence of azithromycin by colony-counting method; assay type: functional; parameters: scale not given: the % may be the effect or the level left
[14] = Inhibition of quorum sensing system in Pseudomonas aeruginosa PAO1 assessed as downregulation of rhlR gene expression at 200 uM by qRT-PCR analysis
[15] = Inhibition of quorum sensing system in Pseudomonas aeruginosa PAO1 assessed as downregulation of […] gene expression at 200 uM by qRT-PCR analysis
[16] = system: Pseudomonas aeruginosa; assay: Antibiofilm activity against Pseudomonas aeruginosa PAO1 assessed as disruption of preformed biofilm at 200 uM incubated for 4 hrs by Confocal microscopic analysis; assay type: functional, organism-based
[17] = Inhibition of quorum sensing system in Pseudomonas aeruginosa PAO1 assessed as decrease of pyocyanin production at 10 to 200 uM for 18 hrs by microplate reader analysis; conditions: dose 10-200 µM
[18] = system: Pseudomonas aeruginosa; assay: Antibiofilm activity against Pseudomonas aeruginosa PAO1 assessed as inhibition of biofilm formation incubated for 24 hrs in presence of CaCl2 by crystal violet staining based microscopic analysis; assay type: functional, organism-based; conditions: PAO1, 24 h
[19] = system: Pseudomonas aeruginosa; assay: Anti-adhesion activity against Pseudomonas aeruginosa PAO1 assessed as inhibition of adhesion ability incubated for 3 hrs using glass as substrate by colony-counting method; assay type: functional, organism-based; conditions: PAO1, 3 h
[20] = Toxicity in sheep red blood cells assessed as induction of hemolysis measured after 4 hr; assay type: cell-based, Ovis aries, Erythrocyte
[21] = system: Pseudomonas aeruginosa; assay: Antibiofilm activity against Pseudomonas aeruginosa PAO1 assessed as disruption of preformed biofilm at 200 uM incubated for 4 hrs by SEM analysis; assay type: functional, organism-based
[22] = system: Pseudomonas aeruginosa; assay: Antibiofilm activity against Pseudomonas aeruginosa PAO1 assessed as disruption of preformed biofilm incubated for 4 hrs by crystal violet staining based microscopic analysis; assay type: functional, organism-based; conditions: PAO1, 4 h
[23] = biological target: Elastase (Pseudomonas aeruginosa (strain ATCC 15692 / PAO1 / 1C / PRS 101 / LMG12228)) (UniProt P14756); assay: Inhibition of Pseudomonas aeruginosa PAO1 elastase activity at 10 to 200 uM for 18 hrs by elastin Congo red based microplate reader analysis; conditions: dose 10-200 µM
[24] = system: Pseudomonas aeruginosa; assay: Anti-adhesion activity against Pseudomonas aeruginosa PAO1 to human A549 cells assessed as decrease in cell adhesion ability at 200 uM incubated for 3 hrs by DAPI staining based confocal microscopy; assay type: functional
[25] = system: Pseudomonas aeruginosa; assay: Antibiofilm activity against Pseudomonas aeruginosa PAO1 assessed as inhibition of biofilm formation at 10 to 200 uM incubated for 24 hrs in presence of CaCl2 by crystal violet staining based microscopic analysis; assay type: functional, organism-based; conditions: dose 10-200 µM
[26] = biological target: T1, PA-I galactophilic lectin (Pseudomonas aeruginosa (strain ATCC 15692 / PAO1 / 1C / PRS 101 / LMG12228), UniProt Q05097); assay: Binding affinity to Pseudomonas aeruginosa PAO1 LecA assessed as dissociation constant by ITC analysis
T1 sequence (Q05097 whole entry): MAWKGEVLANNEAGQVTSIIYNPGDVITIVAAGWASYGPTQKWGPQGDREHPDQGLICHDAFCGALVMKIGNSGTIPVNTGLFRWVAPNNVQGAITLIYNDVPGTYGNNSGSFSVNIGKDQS

[27] = system: Pseudomonas aeruginosa; assay: Anti-adhesion activity against Pseudomonas aeruginosa PAO1 assessed as inhibition of adhesion ability at 200 uM incubated for 3 hrs using glass as substrate by SEM analysis; assay type: functional, organism-based
[28] = Inhibition of quorum sensing system in Pseudomonas aeruginosa PAO1 assessed as downregulation of lasR gene expression at 200 uM by qRT-PCR analysis
[29] = Inhibition of quorum sensing system in Pseudomonas aeruginosa PAO1 assessed as decrease of pyocyanin production at 200 uM for 18 hrs by microplate reader analysis

Chain of Elastase (Pseudomonas aeruginosa (strain ATCC 15692 / PAO1 / 1C / PRS 101 / LMG12228)) (P14756 198-498 limits assumed): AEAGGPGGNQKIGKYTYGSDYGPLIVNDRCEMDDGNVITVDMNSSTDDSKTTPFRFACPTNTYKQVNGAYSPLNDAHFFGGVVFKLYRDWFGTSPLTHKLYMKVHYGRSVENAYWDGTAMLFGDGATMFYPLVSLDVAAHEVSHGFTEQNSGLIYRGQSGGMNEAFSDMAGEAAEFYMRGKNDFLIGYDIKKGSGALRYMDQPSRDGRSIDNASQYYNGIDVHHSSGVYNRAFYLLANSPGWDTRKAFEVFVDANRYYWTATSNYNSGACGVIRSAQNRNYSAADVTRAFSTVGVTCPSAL

SMILES | inhibition at 200 µM [5] [%] | Activity [6] | Activity [7] [%] | remaining at 24 h, up to 1000 µM [8] [%] | Activity [9] [%] | Activity [10] [%] | inhibition at 200 µM [11] [%] | Activity [12] | Activity [13] [%] | inhibition [14] | inhibition [15] | Activity [16] | inhibition [17] | IC50 [18] [µM] | IC50 [19] [µM] | HC50 at 4 h [20] [mM] | Activity [21] | EC50 [22] [µM] | inhibition [23] | Activity [24] | further results
CC[C@H]1OC(=O)[C@H](C)[C@@H](O[C@H]2C[C@@](C)(OC)[C@@H](O)[C@H](C)O2)[C@H](C)[C@@H](O[C@@H]2O[C@H](C)C[C@H](N(C)C)[C@H]2O)[C@](C)(O)C[C@@H](C)CN(C)[C@H](C)[C@@H](O)[C@]1(C)O [AZITHROMYCIN] |  |  |  |  |  |  |  |  |  |  |  |  |  |  |  |  |  |  |  |  | Activity [1]: 27%; inhibition at 50 µg/mL [2]: 48%; inhibition [3]: Active; Activity [4]: 99%
O=C1N[C@@H](Cc2c[nH]c3ccccc23)C(=O)N[C@H]1CO[C@@H]1O[C@H](CO)[C@@H](O)[C@H](O)[C@H]1O | 44 | Active | 90 | > 70 | 5 | 47 | 32 | Non-Toxic | 73 | Active | Active | Active | Active | 250 | 500 | > 10 | Active | 300 | Active | Active | 
O=C1N[C@@H](Cc2c[nH]c3ccccc23)C(=O)N[C@H]1CO[C@@H]1O[C@H](CO)[C@H](O)[C@H](O)[C@H]1O | 69 | Active | 90 | > 70 | 7 | 54 | 50 | Non-Toxic | 81 | Active | Active | Active | Active | 100 | 200 | > 10 | Active | 80 | Active | 29% | inhibition [25]: Active; Kd [26]: 91.3 µM; inhibition [27]: Active
O=C1N[C@@H](Cc2c[nH]c3ccccc23)C(=O)N[C@H]1CO |  |  |  |  |  |  | 16 |  |  |  |  |  | Active | 600 | 800 |  |  | 800 |  | Active | inhibition [28]: 20%; inhibition [29]: 35%

— ChEMBL document CHEMBL5113416, “Glycosylation increases the anti-QS as well as anti-biofilm and anti-adhesion ability of the cyclo (L-Trp-L-Ser) against Pseudomonas aeruginosa” (Eur J Med Chem, 2022)
